Test results taken from patent US11566022B2, “3-(5-methoxy-1-oxoisoindolin-2-yl)piperidine-2,6-dione derivatives and uses thereof” (NOVARTIS AG, priority 2019, dated 2023).
Where two headings read alike, the source gives them in different places.

Target: HiBit-WIZ fusion protein (Homo sapiens, UniProt O95785+Q96SW2)
Experiment: Quantification of WIZ protein levels in HiBit tag fusion protein assay (WIZ HiBit assay in 293T cells)
Assay type: cell-based
Design: Dmax: dose or concentration left out as unconfirmed
Details: for Dmax / remaining activity / remaining activity at up to 25 µM: HEK-293T, 293T cells; for remaining activity: read-out: WIZ Amax, DMSO-normalized, curve-fitted percentage of WIZ-HiBit remaining at 25 uM; for DC50: WIZ HiBit assay in 293T cells, 10-point, 5-fold dose response, highest concentration 25 μM, about 18 hours, read-out: WIZ AC50; for remaining activity at up to 25 µM: DMSO-normalized, curve-fitted percentage of WIZ-HiBit remaining at 25 uM, read-out: WIZ Amax
[1] = read-out: % degradation of WIZ (100-Amax), 100 minus Amax
[2] = 100 minus Amax, read-out: % degradation of WIZ (100-Amax)

HiBit-WIZ fusion protein, sequence (O95785 whole entry, the tested form may be a part): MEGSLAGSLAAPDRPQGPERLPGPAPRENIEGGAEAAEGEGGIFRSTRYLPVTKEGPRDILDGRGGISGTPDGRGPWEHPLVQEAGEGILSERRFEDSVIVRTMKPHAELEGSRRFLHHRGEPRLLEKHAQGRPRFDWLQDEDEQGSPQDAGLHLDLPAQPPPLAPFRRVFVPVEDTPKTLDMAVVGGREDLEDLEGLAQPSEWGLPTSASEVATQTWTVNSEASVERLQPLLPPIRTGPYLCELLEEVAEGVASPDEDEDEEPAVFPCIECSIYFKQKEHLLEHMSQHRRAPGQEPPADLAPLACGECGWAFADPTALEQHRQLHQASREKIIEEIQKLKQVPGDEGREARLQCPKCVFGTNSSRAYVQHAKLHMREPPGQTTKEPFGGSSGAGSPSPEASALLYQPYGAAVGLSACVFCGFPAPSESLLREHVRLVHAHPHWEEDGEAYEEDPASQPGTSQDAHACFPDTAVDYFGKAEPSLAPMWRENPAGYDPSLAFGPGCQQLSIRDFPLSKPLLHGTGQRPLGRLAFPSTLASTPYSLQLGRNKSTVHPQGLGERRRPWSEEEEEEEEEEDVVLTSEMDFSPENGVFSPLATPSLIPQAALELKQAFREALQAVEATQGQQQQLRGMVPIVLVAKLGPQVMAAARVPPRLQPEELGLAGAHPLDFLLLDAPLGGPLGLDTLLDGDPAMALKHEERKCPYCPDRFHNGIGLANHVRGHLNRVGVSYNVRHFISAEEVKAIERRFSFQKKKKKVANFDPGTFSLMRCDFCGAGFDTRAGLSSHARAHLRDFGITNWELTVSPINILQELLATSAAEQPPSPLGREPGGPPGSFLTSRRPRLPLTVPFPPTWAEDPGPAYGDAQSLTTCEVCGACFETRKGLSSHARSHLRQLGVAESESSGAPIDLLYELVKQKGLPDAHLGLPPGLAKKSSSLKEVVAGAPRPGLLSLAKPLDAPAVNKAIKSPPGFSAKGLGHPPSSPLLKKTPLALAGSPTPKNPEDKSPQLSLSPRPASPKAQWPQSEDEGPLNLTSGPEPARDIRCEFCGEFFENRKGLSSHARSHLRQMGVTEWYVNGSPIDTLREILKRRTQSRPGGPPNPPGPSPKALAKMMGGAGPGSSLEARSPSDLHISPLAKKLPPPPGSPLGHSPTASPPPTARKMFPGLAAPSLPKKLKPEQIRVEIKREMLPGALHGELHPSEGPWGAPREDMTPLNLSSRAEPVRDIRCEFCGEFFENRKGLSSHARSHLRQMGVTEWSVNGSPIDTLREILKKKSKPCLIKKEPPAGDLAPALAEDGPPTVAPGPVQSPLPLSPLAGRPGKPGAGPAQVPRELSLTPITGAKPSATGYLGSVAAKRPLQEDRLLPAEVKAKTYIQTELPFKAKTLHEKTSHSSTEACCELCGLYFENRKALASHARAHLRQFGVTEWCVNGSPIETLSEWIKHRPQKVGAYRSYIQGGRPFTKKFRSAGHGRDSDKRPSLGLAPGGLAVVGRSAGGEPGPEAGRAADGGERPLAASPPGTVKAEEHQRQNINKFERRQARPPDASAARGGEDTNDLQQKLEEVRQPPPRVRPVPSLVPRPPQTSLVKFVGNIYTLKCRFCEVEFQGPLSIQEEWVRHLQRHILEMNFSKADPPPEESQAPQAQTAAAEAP
HiBit-WIZ fusion protein, sequence (Q96SW2 whole entry, the tested form may be a part): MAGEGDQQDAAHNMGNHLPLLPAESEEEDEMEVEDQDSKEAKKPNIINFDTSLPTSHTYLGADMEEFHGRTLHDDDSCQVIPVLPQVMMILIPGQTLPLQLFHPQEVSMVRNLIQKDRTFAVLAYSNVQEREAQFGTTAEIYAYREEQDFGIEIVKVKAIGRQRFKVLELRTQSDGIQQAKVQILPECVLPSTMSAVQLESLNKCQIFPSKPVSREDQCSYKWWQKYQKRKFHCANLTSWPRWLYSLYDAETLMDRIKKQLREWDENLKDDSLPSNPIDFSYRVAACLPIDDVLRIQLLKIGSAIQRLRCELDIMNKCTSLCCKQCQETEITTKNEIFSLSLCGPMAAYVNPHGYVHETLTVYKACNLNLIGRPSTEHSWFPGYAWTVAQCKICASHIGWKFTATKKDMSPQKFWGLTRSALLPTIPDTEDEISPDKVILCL
HiBit-WIZ fusion protein, sequence (Q16531 whole entry partner, the tested form may be a part): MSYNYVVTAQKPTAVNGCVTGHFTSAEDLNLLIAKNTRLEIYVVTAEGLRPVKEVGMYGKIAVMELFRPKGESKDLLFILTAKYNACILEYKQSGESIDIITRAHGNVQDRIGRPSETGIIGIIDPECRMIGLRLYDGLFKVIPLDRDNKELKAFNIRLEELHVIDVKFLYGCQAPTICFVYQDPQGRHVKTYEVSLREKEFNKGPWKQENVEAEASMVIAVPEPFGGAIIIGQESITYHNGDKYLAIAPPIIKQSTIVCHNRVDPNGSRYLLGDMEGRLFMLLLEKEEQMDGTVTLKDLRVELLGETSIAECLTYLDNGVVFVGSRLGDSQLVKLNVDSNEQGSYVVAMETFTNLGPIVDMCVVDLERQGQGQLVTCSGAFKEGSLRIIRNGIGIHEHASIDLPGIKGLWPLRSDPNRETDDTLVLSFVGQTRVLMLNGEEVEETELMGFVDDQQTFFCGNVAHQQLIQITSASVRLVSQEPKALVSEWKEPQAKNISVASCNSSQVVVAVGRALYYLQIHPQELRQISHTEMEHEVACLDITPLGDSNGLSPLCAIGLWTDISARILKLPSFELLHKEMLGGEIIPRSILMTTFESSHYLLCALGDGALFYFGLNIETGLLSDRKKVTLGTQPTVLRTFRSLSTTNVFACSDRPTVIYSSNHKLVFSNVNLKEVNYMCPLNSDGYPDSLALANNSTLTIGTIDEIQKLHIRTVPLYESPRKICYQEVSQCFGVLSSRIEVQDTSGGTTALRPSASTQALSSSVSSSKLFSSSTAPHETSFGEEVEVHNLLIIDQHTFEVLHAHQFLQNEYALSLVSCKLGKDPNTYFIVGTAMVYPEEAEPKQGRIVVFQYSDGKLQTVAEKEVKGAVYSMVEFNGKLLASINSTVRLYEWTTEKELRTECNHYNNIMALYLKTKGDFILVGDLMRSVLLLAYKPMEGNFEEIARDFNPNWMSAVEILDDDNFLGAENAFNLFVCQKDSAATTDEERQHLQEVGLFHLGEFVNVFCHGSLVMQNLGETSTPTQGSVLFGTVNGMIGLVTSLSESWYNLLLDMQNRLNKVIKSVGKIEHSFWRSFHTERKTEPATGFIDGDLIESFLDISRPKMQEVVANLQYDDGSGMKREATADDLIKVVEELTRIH

| SMILES | Dmax [1] [%] | remaining activity [%] | DC50 [nM] | Dmax [2] [%] | remaining activity at up to 25 µM [%] |
| --- | --- | --- | --- | --- | --- |
| CCN1CCc2cccc(CN3CCCC[C@@H]3COc3ccc4c(c3)CN(C3CCC(=O)NC3=O)C4=O)c21 (stereo partly drawn) [Compound I-112, 3-(5-(((R)-1-((1-ethylindolin-7-yl)methyl)piperidin-2-yl)methoxy)-1-oxoisoindolin-2-yl)piperidine-2,6-dione] | 96.9 | 3.13 | 59 |  |  |
| O=C1CCC(N2Cc3cc(OC[C@H]4CCCCN4Cc4ccc(F)cc4)ccc3C2=O)C(=O)N1 (some centres unmarked) [Compound I-113] |  |  | 3.8 | 99.4 | 0.64 |
| O=C1CCC(N2Cc3cc(OC[C@H]4CCCCN4Cc4ccc(F)cc4Cl)ccc3C2=O)C(=O)N1 (some centres unmarked) [Compound I-114] |  |  | 18 | 94.5 | 5.54 |
| O=C1CCC(N2Cc3cc(OC[C@H]4CCCCN4Cc4ccc(F)cn4)ccc3C2=O)C(=O)N1 (some centres unmarked) [Compound I-115] |  |  | 170 | 89.5 | 10.5 |
| CO[C@H]1C[C@@H](CN2CCCC[C@@H]2COc2ccc3c(c2)CN(C2CCC(=O)NC2=O)C3=O)C1 (stereo partly drawn) [Compound I-118, 3-(5-(((R)-1-(((1s,3S)-3-methoxycyclobutyl)methyl)piperidin-2-yl)methoxy)-1-oxoisoindolin-2-yl)piperidine-2,6-dione] |  |  | 380 | 85.4 | 14.6 |
| O=C1CCC(N2Cc3cc(OC[C@H]4CCCCN4Cc4ccccc4N4CCCCC4)ccc3C2=O)C(=O)N1 (some centres unmarked) [Compound I-119] |  |  | 10 | 97.4 | 2.56 |
| CC(C)(C)OC(=O)N1CCC(c2ccccc2CN2CCCC[C@@H]2COc2ccc3c(c2)CN(C2CCC(=O)NC2=O)C3=O)CC1 (stereo partly drawn) [Compound I-122, Tert-butyl 4-(2-(((2R)-2-(((2-(2,6-dioxopiperidin-3-yl)-1-oxoisoindolin-5-yl)oxy)methyl)piperidin-1-yl)methyl)phenyl)piperidine-1-carboxylate] |  |  | 51 | 87.6 | 12.4 |
| CCN1CCC(c2ccccc2CN2CCCC[C@@H]2COc2ccc3c(c2)CN(C2CCC(=O)NC2=O)C3=O)CC1 (stereo partly drawn) [Compound I-124, 3-(5-(((R)-1-(2-(1-ethylpiperidin-4-yl)benzyl)piperidin-2-yl)methoxy)-1-oxoisoindolin-2-yl)piperidine-2,6-dione] |  |  | 40 | 94.4 | 5.61 |
| CC(C)(C)OC(=O)N1CCC(c2ccc(CN3CCCC[C@@H]3COc3ccc4c(c3)CN(C3CCC(=O)NC3=O)C4=O)cc2)CC1 (stereo partly drawn) [Compound I-127, Tert-butyl 4-(4-(((2R)-2-(((2-(2,6-dioxopiperidin-3-yl)-1-oxoisoindolin-5-yl)oxy)methyl)piperidin-1-yl)methyl)phenyl)piperidine-1-carboxylate] |  |  | 1.9 | 93.4 | 6.64 |
| CCN1CCC(c2ccc(CN3CCCC[C@@H]3COc3ccc4c(c3)CN(C3CCC(=O)NC3=O)C4=O)cc2)CC1 (stereo partly drawn) [Compound I-129, 3-(5-(((R)-1-(4-(1-ethylpiperidin-4-yl)benzyl)piperidin-2-yl)methoxy)-1-oxoisoindolin-2-yl)piperidine-2,6-dione] | 67.7 | 32.3 | 46 |  |  |
| COc1ccc(CN2CCCC[C@@H]2COc2ccc3c(c2)CN(C2CCC(=O)NC2=O)C3=O)c(OC)c1 (stereo partly drawn) [Compound I-131, 3-(5-(((R)-1-(2,4-dimethoxybenzyl)piperidin-2-yl)methoxy)-1-oxoisoindolin-2-yl)piperidine-2,6-dione] |  |  | 0.52 | 88.9 | 11.1 |
| COc1ccccc1CN1CCCC[C@@H]1COc1ccc2c(c1)CN(C1CCC(=O)NC1=O)C2=O (stereo partly drawn) [Compound I-133, 3-(5-(((R)-1-(2-methoxybenzyl)piperidin-2-yl)methoxy)-1-oxoisoindolin-2-yl)piperidine-2,6-dione] | 83.3 | 16.7 | 8.8 |  |  |
| O=C1CCC(N2Cc3cc(OC[C@H]4CCCCN4Cc4cccc5c4OCCO5)ccc3C2=O)C(=O)N1 (stereo partly drawn) [Compound I-135, 3-(5-(((R)-1-((2,3-dihydrobenzo[b][1,4]dioxin-5-yl)methyl)piperidin-2-yl)methoxy)-1-oxoisoindolin-2-yl)piperidine-2,6-dione] |  |  | 34 | 81.8 | 18.2 |
| O=C1CCC(N2Cc3cc(OC[C@H]4CCCCN4Cc4ccc5c(c4)OCO5)ccc3C2=O)C(=O)N1 (stereo partly drawn) [Compound I-137, 3-(5-(((R)-1-(benzo[d][1,3]dioxol-5-ylmethyl)piperidin-2-yl)methoxy)-1-oxoisoindolin-2-yl)piperidine-2,6-dione] | 90 | 10 | 1.5 |  |  |
| O=C1CCC(N2Cc3cc(OC[C@H]4CCCCN4Cc4cccc(F)c4O)ccc3C2=O)C(=O)N1 (some centres unmarked) [Compound I-143] |  |  |  | 37.4 | 62.6 |
| O=C1CCC(N2Cc3cc(OC[C@H]4CCCCN4Cc4cc(F)c(F)c(F)c4)ccc3C2=O)C(=O)N1 (some centres unmarked) [Compound I-144] |  |  | 76 | 93.7 | 6.3 |
| Cc1nc(C)c(CN2CCCC[C@@H]2COc2ccc3c(c2)CN(C2CCC(=O)NC2=O)C3=O)s1 (some centres unmarked) [Compound I-145] |  |  | 19 | 97.3 | 2.68 |
| O=C1CCC(N2Cc3cc(OC[C@H]4CCCCN4Cc4ccncc4)ccc3C2=O)C(=O)N1 (some centres unmarked) [Compound I-146] |  |  | 2200 | 68.7 | 31.3 |
| O=C1CCC(N2Cc3cc(OC[C@H]4CCCCN4Cc4c(F)cccc4F)ccc3C2=O)C(=O)N1 (some centres unmarked) [Compound I-147] |  |  | 1080 | 71.6 | 28.4 |
| O=C1CCC(N2Cc3cc(OC[C@H]4CCCCN4Cc4ccc(O)cc4)ccc3C2=O)C(=O)N1 (some centres unmarked) [Compound I-148] |  |  | 20 | 94.5 | 5.51 |
| O=C1CCC(N2Cc3cc(OC[C@H]4CCCCN4Cc4cccnc4F)ccc3C2=O)C(=O)N1 (some centres unmarked) [Compound I-149] |  |  | 11400 | 56.9 | 43.1 |
| O=C1CCC(N2Cc3cc(OC[C@H]4CCCCN4Cc4cnc5ccccc5c4)ccc3C2=O)C(=O)N1 (some centres unmarked) [Compound I-150] |  |  | 17 | 98.6 | 1.39 |
| Cc1csc(CN2CCCC[C@@H]2COc2ccc3c(c2)CN(C2CCC(=O)NC2=O)C3=O)n1 (some centres unmarked) [Compound I-151] |  |  | 3430 | 65.1 | 34.9 |
| O=C1CCC(N2Cc3cc(OC[C@H]4CCCCN4Cc4ccc5ccccc5n4)ccc3C2=O)C(=O)N1 (some centres unmarked) [Compound I-152] |  |  | 48 | 97.5 | 2.52 |
| CCc1cc(CN2CCCC[C@@H]2COc2ccc3c(c2)CN(C2CCC(=O)NC2=O)C3=O)ccc1C1CCN(C(=O)OC(C)(C)C)CC1 (stereo partly drawn) [Compound I-155, Tert-butyl 4-(4-(((2R)-2-(((2-(2,6-dioxopiperidin-3-yl)-1-oxoisoindolin-5-yl)oxy)methyl)piperidin-1-yl)methyl)-2-ethylphenyl)piperidine-1-carboxylate] |  |  | 20 | 75.2 | 24.9 |
